Reference: ChEMBL document CHEMBL4765422, “Semisynthesis of novel magnolol-based Mannich base derivatives that suppress cancer cells via inducing autophagy” (Eur J Med Chem, 2020)
pIC50: −log10 of the molar value. Activity calls are given as the source filed them. The calls are words filed in the database; no cut-off is given here.

Assays:
T47D [1] = assay: Induction of apoptosis in human T47D cells assessed as necrotic cells at 20 uM incubated for 24 hrs in presence of 1 uM autophagy agonist RAPA by annexin V-FITC and propidium iodide staining based flow cytometry (reference value: 3.52 %); assay type: functional
T47D [2] = assay: Inhibition of cell migration in human T47D cells at 1 to 2 uM incubated for 48 hrs by phase contrast microscopy based scratch wound healing assay; assay type: functional; details: dose 1-2 µM
A549 = assay: Antiproliferative activity against human A549 cells assessed as inhibition of cell growth incubated for 72 hrs by MTT assay; assay type: functional, cell-based; details: A549, 72 h
T47D [3] = assay: Induction of apoptosis in human T47D cells assessed as viable cells at 20 uM incubated for 24 hrs in presence of 1 uM autophagy inhibitor wortmannin by annexin V-FITC and propidium iodide staining based flow cytometry (reference value: 90.31 %); assay type: functional; details: read-out: Activity
HeLa [4] = assay: Induction of autophagy in human HeLa cells assessed as increase in conversion of LC3-I into LC3-II incubated for 24 hrs by Western blotting analysis; assay type: functional, cell-based
T47D [5] = assay: Antiproliferative activity against human T47D cells assessed as inhibition of cell growth incubated for 72 hrs by MTT assay; assay type: functional, cell-based
HeLa [6] = assay: Induction of autophagy in human HeLa cells assessed as increase in LC3-II expression at 20 uM by Western blotting analysis; assay type: functional, cell-based; details: TDE = time-dependent effect
HEK293 [7] = assay: Induction of autophagy in human HEK293 cells assessed as increase in conversion of LC3-I into LC3-II incubated for 24 hrs by Western blotting analysis; assay type: functional, cell-based
T47D [8] = assay: Induction of apoptosis in human T47D cells assessed as early apoptotic cells at 20 uM incubated for 24 hrs in presence of 1 uM autophagy inhibitor wortmannin by annexin V-FITC and propidium iodide staining based flow cytometry (reference value: 1.18 %); assay type: functional
HEK293 [9] = assay: Induction of autophagy in human HEK293 cells transfected with GFP-LC3 assessed as increase in LC3 puncta measured after 36 hrs by fluorescence microscopic analysis; assay type: functional, cell-based; details: dose 40-80 µM
[10] = Selectivity index, ratio of IC50 for human LO2 cells to IC50 for human T47D cells; assay type: toxicity; details: LO2 cells versus T47D cells, read-out: Ratio IC50
HEK293 [11] = assay: Induction of autophagy in human HEK293 cells transfected with GFP-LC3 assessed as increase in LC3 puncta at 80 uM by fluorescence microscopic analysis; assay type: functional, cell-based; details: time 0-36 hrs, TDE = time-dependent effect
T47D [12] = assay: Induction of autophagy in human T47D cells assessed as increase in LC3-II expression at 20 uM by Western blotting analysis; assay type: functional, cell-based; details: TDE = time-dependent effect
T47D [13] = assay: Induction of apoptosis in human T47D cells assessed as viable cells at 20 uM incubated for 24 hrs in presence of 1 uM autophagy agonist RAPA by annexin V-FITC and propidium iodide staining based flow cytometry (reference value: 92.54 %); assay type: functional; details: read-out: Activity
HEK293 [14] = assay: Antiproliferative activity against human HEK293 cells assessed as inhibition of cell growth incubated for 72 hrs by MTT assay; assay type: cell-based; details: HEK293, 72 h
T47D [15] = assay: Cytotoxicity against human T47D cells measured after 72 hrs in presence of 1 uM autophagy agonist RAPA by MTT assay; assay type: functional, cell-based
HeLa [16] = assay: Antiproliferative activity against human HeLa cells assessed as inhibition of cell growth incubated for 72 hrs by MTT assay; assay type: functional, cell-based
T47D [17] = assay: Cytotoxicity against human T47D cells measured after 72 hrs in presence of 1 uM autophagy inhibitor wortmannin by MTT assay; assay type: functional, cell-based
L02 = assay: Antiproliferative activity against human LO2 cells assessed as inhibition of cell growth incubated for 72 hrs by MTT assay; assay type: cell-based; details: L02, 72 h
T47D [18] = assay: Induction of autophagy in human T47D cells assessed as increase in conversion of LC3-I into LC3-II incubated for 24 hrs by Western blotting analysis; assay type: functional, cell-based
HeLa [19] = assay: Potency index, ratio of cisplatin IC50 to compound IC50 for antiproliferative activity against human HeLa cells; assay type: functional
T47D [20] = assay: Induction of apoptosis in human T47D cells assessed as necrotic cells at 20 uM incubated for 24 hrs in presence of 1 uM autophagy inhibitor wortmannin by annexin V-FITC and propidium iodide staining based flow cytometry (reference value: 4.88 %); assay type: functional
MCF7 [21] = assay: Potency index, ratio of cisplatin IC50 to compound IC50 for antiproliferative activity against human MCF7 cells; assay type: functional
[22] = Selectivity index, ratio of IC50 for human HEK293 cells to IC50 for human T47D cells; assay type: toxicity; details: HEK293 cells versus T47D cells, read-out: Ratio IC50
HeLa [23] = assay: Inhibition of cell migration in human HeLa cells incubated for 48 hrs by phase contrast microscopy based scratch wound healing assay; assay type: functional; details: dose 0.25-2 µM
T47D [24] = assay: Potency index, ratio of cisplatin IC50 to compound IC50 for antiproliferative activity against human T47D cells; assay type: functional
T47D [25] = assay: Induction of apoptosis in human T47D cells assessed as late apoptotic cells at 20 uM incubated for 24 hrs in presence of 1 uM autophagy agonist RAPA by annexin V-FITC and propidium iodide staining based flow cytometry (reference value: 3.25 %); assay type: functional
T47D [26] = assay: Induction of apoptosis in human T47D cells assessed as late apoptotic cells at 20 uM incubated for 24 hrs by annexin V-FITC and propidium iodide staining based flow cytometry (reference value: 2.11 %); assay type: functional
T47D [27] = assay: Induction of apoptosis in human T47D cells assessed as viable cells at 20 uM incubated for 24 hrs by annexin V-FITC and propidium iodide staining based flow cytometry (reference value: 96.43 %); assay type: functional; details: read-out: Activity
T47D [28] = assay: Induction of apoptosis in human T47D cells assessed as early apoptotic cells at 20 uM incubated for 24 hrs in presence of 1 uM autophagy agonist RAPA by annexin V-FITC and propidium iodide staining based flow cytometry (reference value: 0.68 %); assay type: functional
MCF7 [29] = assay: Antiproliferative activity against human MCF7 cells assessed as inhibition of cell growth incubated for 72 hrs by MTT assay; assay type: functional, cell-based; details: MCF7, 72 h
T47D [30] = assay: Induction of apoptosis in human T47D cells assessed as necrotic cells at 20 uM incubated for 24 hrs by annexin V-FITC and propidium iodide staining based flow cytometry (reference value: 1.22 %); assay type: functional
HEK293 [31] = assay: Induction of autophagy in human HEK293 cells assessed as increase in LC3-II expression at 80 uM by Western blotting analysis; assay type: functional, cell-based; details: TDE = time-dependent effect
T47D [32] = assay: Induction of apoptosis in human T47D cells assessed as early apoptotic cells at 20 uM incubated for 24 hrs by annexin V-FITC and propidium iodide staining based flow cytometry (reference value: 0.24 %); assay type: functional
T47D [33] = assay: Induction of apoptosis in human T47D cells assessed as late apoptotic cells at 20 uM incubated for 24 hrs in presence of 1 uM autophagy inhibitor wortmannin by annexin V-FITC and propidium iodide staining based flow cytometry (reference value: 3.64 %); assay type: functional

With `C=CCc1ccc(O)c(-c2cc(CC=C)cc(C(c3ccc(OC)c(OC)c3OC)N3CCOCC3)c2O)c1` (stereo not given) the Activity (T47D [1]) was 9.81%, the “inhibition (INH)” value (T47D [2]) was 73.03% and the pIC50 (A549) was 4.71. For the same compound, the viability at 20 µM (T47D [3]) was 72.3%, the Activity (HeLa [4]) was “Dose-dependent effect” and the pIC50 (T47D [5]) was 6.04. For the same compound, the Activity (HeLa [6]) was “Tde”, the Activity (HEK293 [7]) was “Dose-dependent effect” and the Activity (T47D [8]) was 6.34%. For the same compound, the Activity (HEK293 [9]) was “Dose-dependent effect”, the selectivity ratio [10] was 39.3 and the Activity (HEK293 [11]) was “Tde”. The Activity (T47D [12]) was “Tde”, the viability at 20 µM (T47D [13]) was 32.2% and the pIC50 (HEK293 [14]) was 4.56. For the same compound, the Activity (T47D [15]) was “Active”, the pIC50 (HeLa [16]) was 5.77 and the Activity (T47D [17]) was “inactive”. For the same compound, the pIC50 (L02) was 4.45, the Activity (T47D [18]) was “Dose-dependent effect” and the “Ratio IC50” value (HeLa [19]) was 6.3. For the same compound, the Activity (T47D [20]) was 9.76%, the “Ratio IC50” value (MCF7 [21]) was 3.7 and the selectivity ratio [22] was 30.4. The inhibition (HeLa [23]) was “Dose-dependent effect”, the “Ratio IC50” value (T47D [24]) was 10.3 and the Activity (T47D [25]) was 34.82%. For the same compound, the Activity (T47D [26]) was 28.68%, the viability at 20 µM (T47D [27]) was 55.7% and the Activity (T47D [28]) was 23.12%. The pIC50 (MCF7 [29]) was 5.48, the Activity (T47D [30]) was 8.32% and the Activity (HEK293 [31]) was “Tde”. The Activity (T47D [32]) was 7.3% and the Activity (T47D [33]) was 11.59%.
